Data set [1] relates to C. pneumoniae. The experiment in a line: Rabbit model of atherosclerosis accelerated by C. pneumoniae infection, high cholesterol diet. The note with it: C. pneumoniae-infected rabbits; for infectious burden of Chlamydia in the vasculature (in words): versus placebo. The class given is in vivo. As for the experimental part: Thirty received three separate C. pneumoniae inoculations performed at 3-week intervals. Similarly, 15 control rabbits were intranasally inoculated with 1 mL of normal saline under the same conditions. [table] Nineteen weeks after beginning antibiotic treatment, the rabbits were euthanized. After euthanasia, hearts were examined histologically and by immunofluorescence. Animal serum samples were also examined for seropositivity to the infecting organism. […] In the current study, the time after infection and treatment with either azithromycin or rifalazil was increased by seven weeks, a more rigorous test for the durability of treatment. Consistent with previously published work, C. pneumoniae-infected rabbits accumulated more plaque than non-infected rabbits (p=0.08).

For data set [2], the system named is C. pneumoniae. The note with it: C. pneumoniae-infected rabbits, previously published study; cited from earlier work.
Data set [3] is classed as physicochemical. As for the experimental part: Rifalazil is a highly lipophilic molecule having limited solubility in water at physiological pH (approximately 200 ng/mL). Evidence of the highly lipophilic behavior of the molecule is illustrated in the partition coefficient (n-octanol:water) of between 70, 569 and over 900,000 in different experiments (Log P range; 4.9-5.9).

Data set [4] is described as follows: Degradation to 25-desacetyl derivative under acidic and basic conditions. The class given is physicochemical. An excerpt: Rifalazil degrades to a 25-desacetyl derivative under both acidic and basic conditions. Typical of ester hydrolysis, the degradation in highly alkaline solutions is rapid while at an acidic pH, e.g., pH 1, the degradation at room temperature is slower, approximately 6% in one hour.

Data set [5] deals with Chlamydia. As to the kind of experiment: Phase 2 study in men with non-gonococcal urethritis. The class given is in vivo. The note with it: single oral dose. An excerpt: (§1) Both preclinical and clinical lines of evidence support the use of rifalazil in the methods of the invention. […] In addition, based on overall safety data in animals and man, we believe that a dose of rifalazil can safely be administered, tolerated, and will likely result in clinical benefit through its anti-Chlamydia action in these patients.

The test system of data set [6] is C. pneumoniae. As to the kind of experiment: Potency against C. pneumoniae relative to roxithromycin. The note with it: fold more potent than roxithromycin. The class given is cell-based.
Source text: as §1

Entries after “also recorded” stand apart in the source; their conditions may differ.

For the molecule `CC[C@H]1OC(=O)[C@H](C)[C@@H](O[C@H]2C[C@@](C)(OC)[C@@H](O)[C@H](C)O2)[C@H](C)[C@@H](O[C@@H]2O[C@H](C)C[C@H](N(C)C)[C@H]2O)[C@](C)(O)C[C@@H](C)CN(C)[C@H](C)[C@@H](O)[C@]1(C)O` [azithromycin, reference compound], the “infectious burden of Chlamydia in the vasculature (in words)” value in data set [1] is “reduced the infectious burden of Chlamydia in the vasculature”. Also, in data set [2], the “prevention of Chlamydia-induced plaque formation (in words)” value is “significant effect in preventing Chlamydia-induced plaque formation”.
As to `CO[C@H]1/C=C/O[C@@]2(C)Oc3c(C)c(O)c4c(=O)c(c5oc6cc(N7CCN(CC(C)C)CC7)cc(O)c6nc-5c4c3C2=O)NC(=O)/C(C)=C\C=C\[C@H](C)[C@H](O)[C@@H](C)[C@@H](O)[C@@H](C)[C@H](OC(C)=O)[C@@H]1C` [rifalazil, 3′-hydroxy-5′-(4-isobutyl-1-piperazinyl)benzoxazinorifamycin], the “partition coefficient (n-octanol:water)” value in data set [3] is listed as 70, 569-900,000. The “degradation to 25-desacetyl derivative” value in data set [4] (acidic pH 1, room temperature, in one hour) is listed as “approximately 6%”. In data set [4] (highly alkaline solutions), the “degradation (ester hydrolysis)” value is reported as “rapid”. Also, in data set [1], the “plaque area stenosis compared with placebo-treated animals (in words)” value is “reduced C. pneumoniae burden and plaque area stenosis; also recorded: showed a trend in producing significantly reduced plaque area stenosis”; the “infectious burden of Chlamydia in the vasculature (in words)” value is reported as “reduced C. pneumoniae burden; also recorded: reduced the infectious burden of Chlamydia in the vasculature”. Moreover, the “patients in whom Chlamydia was eradicated” value in data set [5] is given as greater than 86%. The “potency against C. pneumoniae relative to roxithromycin” value in data set [6] was 2000 times.
